In ChEMBL document CHEMBL5442175, “EUbOPEN Chemogenomics Library - PDSP Secondary Binding” (2024):

Legend:
[1] = biological target: Delta-type opioid receptor (Homo sapiens, UniProt P41143); test: (§1) PDSP Secondary Binding target: OPRD1 - Compounds are tested at 10 uM concentration, plate are incubated at room temperature in the dark for 90 minutes. Reaction are stopped by vacuum filtration onto 0.3% polyethyleneimine soaked filter mats using Filtermate harvester. Scintillation cocktail is then melted onto microwave-dried filters on a hot plate and the radio activity is counted in Microbia counter.
Histamine H4 receptor = Histamine H4 receptor (Homo sapiens, UniProt Q9H3N8); test: as §1, with “HRH4” for “OPRD1”

Delta-type opioid receptor, sequence (P41143 whole entry): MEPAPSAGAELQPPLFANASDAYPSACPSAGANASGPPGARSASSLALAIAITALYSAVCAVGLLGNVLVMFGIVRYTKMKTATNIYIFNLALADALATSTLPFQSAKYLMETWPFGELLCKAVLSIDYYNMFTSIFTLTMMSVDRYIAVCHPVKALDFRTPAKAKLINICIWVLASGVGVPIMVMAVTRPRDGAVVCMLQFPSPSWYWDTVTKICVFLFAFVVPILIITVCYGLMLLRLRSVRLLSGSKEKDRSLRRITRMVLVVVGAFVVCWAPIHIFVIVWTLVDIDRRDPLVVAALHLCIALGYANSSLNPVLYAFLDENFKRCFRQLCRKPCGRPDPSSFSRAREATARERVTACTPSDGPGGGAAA

Ki [1] [nM]	Ki (Histamine H4 receptor) [nM]	SMILES
399	–	COC(=O)C1=C(C)NC(C)=C(C(=O)OCCCN2CCC(c3ccccc3)(c3ccccc3)CC2)[C@H]1c1cccc([N+](=O)[O-])c1 [NIGULDIPINE]
–	> 10000	COc1cc(-n2cnc3cc(-c4ccc(Cl)cc4)sc3c2=O)ccc1OCCN1CCCC1
